Experiments:
PLK1 = PLK1 (Homo sapiens, UniProt P53350); experiment: PLK1 activity (known assay); assay type: biochemical
Protocol: (§1) The Wee1 pCDK1 and PLK1 activities were determined using known assays.

Wee1 = Wee1 (Homo sapiens, UniProt P30291); experiment: Wee1 pCDK1 activity (known assay); assay type: cell-based
Protocol: as §1

Wee1, sequence (P30291 whole entry, species assumed): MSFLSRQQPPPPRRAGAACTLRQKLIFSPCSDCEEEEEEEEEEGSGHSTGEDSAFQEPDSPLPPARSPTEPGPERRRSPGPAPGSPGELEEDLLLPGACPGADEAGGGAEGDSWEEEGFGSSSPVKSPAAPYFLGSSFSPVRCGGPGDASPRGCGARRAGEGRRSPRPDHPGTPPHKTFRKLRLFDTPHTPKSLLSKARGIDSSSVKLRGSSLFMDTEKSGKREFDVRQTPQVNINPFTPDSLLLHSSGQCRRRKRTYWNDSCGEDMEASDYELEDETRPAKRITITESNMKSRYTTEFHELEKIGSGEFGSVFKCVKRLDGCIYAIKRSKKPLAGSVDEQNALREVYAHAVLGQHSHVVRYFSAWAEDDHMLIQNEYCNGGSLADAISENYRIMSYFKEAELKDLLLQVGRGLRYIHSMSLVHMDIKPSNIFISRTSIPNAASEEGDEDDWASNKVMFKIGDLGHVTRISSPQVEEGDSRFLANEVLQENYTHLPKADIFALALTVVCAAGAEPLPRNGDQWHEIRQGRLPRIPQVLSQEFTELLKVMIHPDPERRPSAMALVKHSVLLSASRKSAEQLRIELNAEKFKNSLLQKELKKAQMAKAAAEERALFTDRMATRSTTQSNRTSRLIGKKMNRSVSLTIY
PLK1, sequence (P53350 whole entry, species assumed): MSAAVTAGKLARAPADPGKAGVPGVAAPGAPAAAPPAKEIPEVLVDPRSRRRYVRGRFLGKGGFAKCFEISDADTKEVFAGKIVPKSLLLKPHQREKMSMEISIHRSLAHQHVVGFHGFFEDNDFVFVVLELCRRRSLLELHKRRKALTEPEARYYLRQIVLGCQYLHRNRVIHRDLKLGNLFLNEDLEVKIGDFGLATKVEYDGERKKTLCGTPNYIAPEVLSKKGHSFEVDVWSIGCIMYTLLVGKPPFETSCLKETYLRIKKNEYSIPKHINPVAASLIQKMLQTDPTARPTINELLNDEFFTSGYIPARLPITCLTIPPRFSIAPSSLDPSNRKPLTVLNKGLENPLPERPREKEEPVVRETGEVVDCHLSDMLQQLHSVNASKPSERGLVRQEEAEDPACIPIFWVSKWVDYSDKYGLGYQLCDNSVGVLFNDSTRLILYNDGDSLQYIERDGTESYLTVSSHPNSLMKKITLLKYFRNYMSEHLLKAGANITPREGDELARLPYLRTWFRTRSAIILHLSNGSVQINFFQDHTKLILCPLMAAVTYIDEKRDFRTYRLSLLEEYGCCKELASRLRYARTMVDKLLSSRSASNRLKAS

| IC50 (PLK1) | IC50 (Wee1) | SMILES |
| --- | --- | --- |
| 250 to 500 nM | 250 to 500 nM | CCC1(O)CCc2ccc(Nc3nc(Nc4ccc(C5CCN(C)CC5)c(F)c4)ncc3C#N)nc21 (stereo not drawn) [Example 43, 4-[(7-ethyl-7-hydroxy-5,6-dihydrocyclopenta[b]pyridin-2-yl)amino]-2-[3-fluoro-4-(1-methyl-4-piperidyl)anilino]pyrimidine-5-carbonitrile] |
| 250 to 500 nM | 100 to 250 nM | CCC1(O)CCc2ccc(Nc3nc(Nc4ccc(C5CCN(C)CC5)c(COC)c4)ncc3C#N)nc21 (stereo not drawn) [Example 44, 4-[(7-ethyl-7-hydroxy-5,6-dihydrocyclopenta[b]pyridin-2-yl)amino]-2-[3-(methoxymethyl)-4-(1-methyl-4-piperidyl)anilino]pyrimidine-5-carbonitrile] |
| ≤ 100 nM | ≤ 100 nM | CCC1(O)CCc2ccc(Nc3nc(Nc4ccc(C5CCN(C)CC5)c(OC)c4)ncc3C#N)nc21 (stereo not drawn) [Example 45, 4-[(7-ethyl-7-hydroxy-5,6-dihydrocyclopenta[b]pyridin-2-yl)amino]-2-[3-methoxy-4-(1-methyl-4-piperidyl)anilino]pyrimidine-5-carbonitrile] |
| 250 to 500 nM | 100 to 250 nM | CCC1(O)CCc2ccc(Nc3nc(Nc4ccc5c(c4)CCN(C)C5)ncc3C#N)nc21 (stereo not drawn) [Example 46, 4-[(7-ethyl-7-hydroxy-5,6-dihydrocyclopenta[b]pyridin-2-yl)amino]-2-[(2-methyl-3,4-dihydro-1H-isoquinolin-6-yl)amino]pyrimidine-5-carbonitrile] |
| 250 to 500 nM | ≤ 100 nM | CCC1(O)CCc2ccc(Nc3nc(Nc4cc(C)c5c(c4)CCN(C)C5)ncc3C#N)nc21 (stereo not drawn) [Example 47, 2-[(2,8-dimethyl-3,4-dihydro-1H-isoquinolin-6-yl)amino]-4-[(7-ethyl-7-hydroxy-5,6-dihydrocyclopenta[b]pyridin-2-yl)amino]pyrimidine-5-carbonitrile] |
| > 1000 nM | 250 to 500 nM | CCC1(O)CCc2ccc(Nc3nc(Nc4ccc5c(c4)CN(C)CC5(C)C)ncc3C#N)nc21 (stereo not drawn) [Example 48, 4-[(7-ethyl-7-hydroxy-5,6-dihydrocyclopenta[b]pyridin-2-yl)amino]-2-[(2,4,4-trimethyl-1,3-dihydroisoquinolin-7-yl)amino]pyrimidine-5-carbonitrile] |
| ≤ 100 nM | ≤ 100 nM | CCC1(O)CCc2ccc(Nc3nc(Nc4cc(C)c5c(c4)CN(C)CC5)ncc3C#N)nc21 (stereo not drawn) [Example 49, 2-[(2,5-dimethyl-3,4-dihydro-1H-isoquinolin-7-yl)amino]-4-[(7-ethyl-7-hydroxy-5,6-dihydrocyclopenta[b]pyridin-2-yl)amino]pyrimidine-5-carbonitrile] |
| 100 to 250 nM | 500 to 1000 nM | CCC1(O)CCc2ccc(Nc3nc(Nc4ccc(COC)c(N5CCN(C)CC5)c4)ncc3C#N)nc21 (stereo not drawn) [Example 50, 4-[(7-ethyl-7-hydroxy-5,6-dihydrocyclopenta[b]pyridin-2-yl)amino]-2-[4-(methoxymethyl)-3-(4-methylpiperazin-1-yl)anilino]pyrimidine-5-carbonitrile] |
| 250 to 500 nM | 100 to 250 nM | CCC1(O)CCc2ccc(Nc3nc(Nc4ccc(N5CCN(C)CC5C)cc4)ncc3C#N)nc21 (stereo not drawn) [Example 51, 2-[4-(2,4-dimethylpiperazin-1-yl)anilino]-4-[(7-ethyl-7-hydroxy-5,6-dihydrocyclopenta[b]pyridin-2-yl)amino]pyrimidine-5-carbonitrile] |
| ≤ 100 nM | 250 to 500 nM | CCC1(O)CCc2ccc(Nc3nc(Nc4ccc(N5CCN(C)C(C)C5)cc4)ncc3C#N)nc21 (stereo not drawn) [Example 52, 2-[4-(3,4-dimethylpiperazin-1-yl)anilino]-4-[(7-ethyl-7-hydroxy-5,6-dihydrocyclopenta[b]pyridin-2-yl)amino]pyrimidine-5-carbonitrile] |
| ≤ 100 nM | 250 to 500 nM | CCC1(O)CCc2ccc(Nc3nc(Nc4ccc(N5CCN(C(C)=O)C6(CC6)C5)cc4)ncc3C#N)nc21 (stereo not drawn) [Example 54, 2-[4-(4-acetyl-4,7-diazaspiro[2.5]octan-7-yl)anilino]-4-[(7-ethyl-7-hydroxy-5,6-dihydrocyclopenta[b]pyridin-2-yl)amino]pyrimidine-5-carbonitrile] |
| ≤ 100 nM | > 1000 nM | CCC1(O)CCc2ccc(Nc3nc(Nc4ccc5c(c4)CNCC54CC4)ncc3C#N)nc21 (stereo not drawn) [Example 55, 4-[(7-ethyl-7-hydroxy-5,6-dihydrocyclopenta[b]pyridin-2-yl)amino]-2-(spiro[2,3-dihydro-1H-isoquinoline-4,1′-cyclopropane]-7-ylamino)pyrimidine-5-carbonitrile] |
| 100 to 250 nM | 100 to 250 nM | CCC1(O)CCc2ccc(Nc3nc(Nc4ccc5c(c4)CN(C)CC54CC4)ncc3C#N)nc21 (stereo not drawn) [Example 56, 4-[(7-ethyl-7-hydroxy-5,6-dihydrocyclopenta[b]pyridin-2-yl)amino]-2-[(2-methylspiro[1,3-dihydroisoquinoline-4,1′-cyclopropane]-7-yl)amino]pyrimidine-5-carbonitrile] |

The remaining lines, values behind:

| SMILES | IC50 (PLK1) | IC50 (Wee1) |
| --- | --- | --- |
| CCC1(O)CCc2ccc(Nc3nc(Nc4ccc(N5CC6CCC5CN6C)cc4)ncc3C#N)nc21 (stereo not drawn) [Example 24, 4-[(7-ethyl-7-hydroxy-5,6-dihydrocyclopenta[b]pyridin-2-yl)amino]-2-[4-(5-methyl-2,5-diazabicyclo[2.2.2]octan-2-yl)anilino]pyrimidine-5-carbonitrile] | ≤ 100 nM | ≤ 100 nM |
| CCC1(O)CCc2ccc(Nc3nc(Nc4ccc5c(c4)CCNC5(C)C)ncc3C#N)nc21 (stereo not drawn) [Example 25, 2-[(1,1-dimethyl-3,4-dihydro-2H-isoquinolin-6-yl)amino]-4-[(7-ethyl-7-hydroxy-5,6-dihydrocyclopenta[b]pyridin-2-yl)amino]pyrimidine-5-carbonitrile] | > 1000 nM | 500 to 1000 nM |
| CCC1(O)CCc2ccc(Nc3nc(Nc4ccc5c(c4)CCN(C)C5(C)C)ncc3C#N)nc21 (stereo not drawn) [Example 26, 4-[(7-ethyl-7-hydroxy-5,6-dihydrocyclopenta[b]pyridin-2-yl)amino]-2-[(1,1,2-trimethyl-3,4-dihydroisoquinolin-6-yl)amino]pyrimidine-5-carbonitrile] | > 1000 nM | ≤ 100 nM |
| CCC1(O)CCc2ccc(Nc3nc(Nc4ccc5c(c4)CN(C)CC5)ncc3C#N)nc21 (stereo not drawn) [Example 29] | 100 to 250 nM | 250 to 500 nM |
| CCC1(O)CCc2ccc(Nc3nc(Nc4ccc5c(c4)CNCC5(C)C)ncc3C#N)nc21 (stereo not drawn) [Example 30, 2-[(4,4-dimethyl-2,3-dihydro-1H-isoquinolin-7-yl)amino]-4-[(7-ethyl-7-hydroxy-5,6-dihydrocyclopenta[b]pyridin-2-yl)amino]pyrimidine-5-carbonitrile] | > 1000 nM | 250 to 500 nM |
| CCC1(O)CCc2ccc(Nc3nc(Nc4ccc(N5CCNC6(CC6)C5)cc4)ncc3C#N)nc21 (stereo not drawn) [Example 31, 2-[4-(4,7-diazaspiro[2.5]octan-7-yl)anilino]-4-[(7-ethyl-7-hydroxy-5,6-dihydrocyclopenta[b]pyridin-2-yl)amino]pyrimidine-5-carbonitrile] | 100 to 250 nM | > 1000 nM |
| CCC1(O)CCc2ccc(Nc3nc(Nc4ccc(N5CCN(C)C6(CC6)C5)cc4)ncc3C#N)nc21 (stereo not drawn) [Example 33, 4-[(7-ethyl-7-hydroxy-5,6-dihydrocyclopenta[b]pyridin-2-yl)amino]-2-[4-(4-methyl-4,7-diazaspiro[2.5]octan-7-yl)anilino]pyrimidine-5-carbonitrile] | ≤ 100 nM | > 1000 nM |
| CCC1(O)CCc2ccc(Nc3nc(Nc4ccc(N5CC6CN(C)CC6C5)cc4)ncc3C#N)nc21 (stereo not drawn) [Example 34, 4-[(7-ethyl-7-hydroxy-5,6-dihydrocyclopenta[b]pyridin-2-yl)amino]-2-[4-(2-methyl-1,3,3a,4,6,6a-hexahydropyrrolo[3,4-c]pyrrol-5-yl)anilino]pyrimidine-5-carbonitrile] | ≤ 100 nM | 100 to 250 nM |
| CCC1(O)CCc2ccc(Nc3nc(Nc4ccc(N5CC6CCC(C5)N6C)cc4)ncc3C#N)nc21 (stereo not drawn) [Example 35, 4-[(7-ethyl-7-hydroxy-5,6-dihydrocyclopenta[b]pyridin-2-yl)amino]-2-[4-(8-methyl-3,8-diazabicyclo[3.2.1]octan-3-yl)anilino]pyrimidine-5-carbonitrile] | ≤ 100 nM | 100 to 250 nM |
| CCC1(O)CCc2ccc(Nc3nc(Nc4ccc(N5C6CCC5CN(C)C6)cc4)ncc3C#N)nc21 (stereo not drawn) [Example 36, 4-[(7-ethyl-7-hydroxy-5,6-dihydrocyclopenta[b]pyridin-2-yl)amino]-2-[4-(3-methyl-3,8-diazabicyclo[3.2.1]octan-8-yl)anilino]pyrimidine-5-carbonitrile] | > 1000 nM | 250 to 500 nM |
| CCC1(O)CCc2ccc(Nc3nc(Nc4ccc(N5CCC6(CCN(C)CC6)CC5)cc4)ncc3C#N)nc21 (stereo not drawn) [Example 39, 4-[(7-ethyl-7-hydroxy-5,6-dihydrocyclopenta[b]pyridin-2-yl)amino]-2-[4-(9-methyl-3,9-diazaspiro[5.5]undecan-3-yl)anilino]pyrimidine-5-carbonitrile] | ≤ 100 nM | 100 to 250 nM |
| CCC1(O)CCc2ccc(Nc3nc(Nc4cc(F)c(C5CCN(C)CC5)c(F)c4)ncc3C#N)nc21 (stereo not drawn) [Example 40, 2-[3,5-difluoro-4-(1-methyl-4-piperidyl)anilino]-4-[(7-ethyl-7-hydroxy-5,6-dihydrocyclopenta[b]pyridin-2-yl)amino]pyrimidine-5-carbonitrile] | > 1000 nM | 500 to 1000 nM |
| CCC1(O)CCc2ccc(Nc3nc(Nc4cc(C)c(C5CCN(C)CC5)c(F)c4)ncc3C#N)nc21 (stereo not drawn) [Example 41, 4-[(7-ethyl-7-hydroxy-5,6-dihydrocyclopenta[b]pyridin-2-yl)amino]-2-[3-fluoro-5-methyl-4-(1-methyl-4-piperidyl)anilino]pyrimidine-5-carbonitrile] | 250 to 500 nM | 100 to 250 nM |
| CCC1(O)CCc2ccc(Nc3nc(Nc4ccc(C5CCN(C)CC5)c(Cl)c4)ncc3C#N)nc21 (stereo not drawn) [Example 42, 2-[3-chloro-4-(1-methyl-4-piperidyl)anilino]-4-[(7-ethyl-7-hydroxy-5,6-dihydrocyclopenta[b]pyridin-2-yl)amino]pyrimidine-5-carbonitrile] | 100 to 250 nM | 250 to 500 nM |
